# Paper PMC12232896 (Angewandte Chemie (International Ed. in English), 2025)
# Assays:
# [1] = target: PvPI4Kβ (Plasmodium vivax, UniProt A5KB26); design: method as in PMID 33590753, PMID 28446690, PMID 30249687; details: same assay; cited from earlier work
# [2] = tested on: Pf3D7 strain; details: cited from earlier work
# [3] = target: T1, HsMAP4K4 (Homo sapiens, UniProt O95819); assay: HsMAP4K4 ADP-Glo kinase assay; format: biochemical; details: reference compound, 10 µM ATP
# T1 construct: purchased Reaction Biology
# T1 sequence (O95819 whole entry): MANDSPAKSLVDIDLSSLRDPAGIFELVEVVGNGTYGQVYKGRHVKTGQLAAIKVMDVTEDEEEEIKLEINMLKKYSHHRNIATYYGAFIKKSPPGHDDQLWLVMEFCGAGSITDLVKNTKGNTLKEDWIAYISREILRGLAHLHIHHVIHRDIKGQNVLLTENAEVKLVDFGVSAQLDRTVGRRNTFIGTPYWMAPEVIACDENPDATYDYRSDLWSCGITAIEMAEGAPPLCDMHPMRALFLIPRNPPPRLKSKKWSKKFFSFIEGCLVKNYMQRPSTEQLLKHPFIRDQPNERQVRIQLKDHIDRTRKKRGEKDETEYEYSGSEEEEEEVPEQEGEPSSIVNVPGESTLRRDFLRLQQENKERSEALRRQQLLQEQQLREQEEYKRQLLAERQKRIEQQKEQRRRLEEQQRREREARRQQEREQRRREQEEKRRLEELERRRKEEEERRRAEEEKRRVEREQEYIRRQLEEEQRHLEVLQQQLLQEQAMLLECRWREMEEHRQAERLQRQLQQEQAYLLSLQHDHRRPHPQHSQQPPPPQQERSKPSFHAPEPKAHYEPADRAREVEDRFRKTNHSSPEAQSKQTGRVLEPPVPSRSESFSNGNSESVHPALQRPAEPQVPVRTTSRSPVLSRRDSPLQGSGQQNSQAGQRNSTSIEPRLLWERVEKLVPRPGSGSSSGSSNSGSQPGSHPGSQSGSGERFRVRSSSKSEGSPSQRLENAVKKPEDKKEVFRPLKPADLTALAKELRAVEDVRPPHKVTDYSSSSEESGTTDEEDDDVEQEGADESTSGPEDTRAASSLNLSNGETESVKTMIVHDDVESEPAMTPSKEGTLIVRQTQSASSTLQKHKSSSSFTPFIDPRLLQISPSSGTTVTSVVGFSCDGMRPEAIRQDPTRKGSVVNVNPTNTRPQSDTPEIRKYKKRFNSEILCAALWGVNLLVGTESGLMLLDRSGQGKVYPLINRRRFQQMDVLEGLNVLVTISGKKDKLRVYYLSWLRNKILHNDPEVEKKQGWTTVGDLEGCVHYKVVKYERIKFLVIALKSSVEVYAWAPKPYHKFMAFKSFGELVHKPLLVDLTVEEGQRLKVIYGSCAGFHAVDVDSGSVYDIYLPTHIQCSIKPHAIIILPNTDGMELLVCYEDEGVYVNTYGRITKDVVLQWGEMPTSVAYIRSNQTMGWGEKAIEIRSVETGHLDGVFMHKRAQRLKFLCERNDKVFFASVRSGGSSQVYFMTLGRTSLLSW
# [4] = target: T2, HsMINK1 (Homo sapiens, UniProt Q8N4C8); assay: HsMINK1 ADP-Glo kinase assay; format: biochemical; details: reference compound, 10 µM ATP
# T2 construct: purchased Reaction Biology
# T2 sequence (Q8N4C8 whole entry): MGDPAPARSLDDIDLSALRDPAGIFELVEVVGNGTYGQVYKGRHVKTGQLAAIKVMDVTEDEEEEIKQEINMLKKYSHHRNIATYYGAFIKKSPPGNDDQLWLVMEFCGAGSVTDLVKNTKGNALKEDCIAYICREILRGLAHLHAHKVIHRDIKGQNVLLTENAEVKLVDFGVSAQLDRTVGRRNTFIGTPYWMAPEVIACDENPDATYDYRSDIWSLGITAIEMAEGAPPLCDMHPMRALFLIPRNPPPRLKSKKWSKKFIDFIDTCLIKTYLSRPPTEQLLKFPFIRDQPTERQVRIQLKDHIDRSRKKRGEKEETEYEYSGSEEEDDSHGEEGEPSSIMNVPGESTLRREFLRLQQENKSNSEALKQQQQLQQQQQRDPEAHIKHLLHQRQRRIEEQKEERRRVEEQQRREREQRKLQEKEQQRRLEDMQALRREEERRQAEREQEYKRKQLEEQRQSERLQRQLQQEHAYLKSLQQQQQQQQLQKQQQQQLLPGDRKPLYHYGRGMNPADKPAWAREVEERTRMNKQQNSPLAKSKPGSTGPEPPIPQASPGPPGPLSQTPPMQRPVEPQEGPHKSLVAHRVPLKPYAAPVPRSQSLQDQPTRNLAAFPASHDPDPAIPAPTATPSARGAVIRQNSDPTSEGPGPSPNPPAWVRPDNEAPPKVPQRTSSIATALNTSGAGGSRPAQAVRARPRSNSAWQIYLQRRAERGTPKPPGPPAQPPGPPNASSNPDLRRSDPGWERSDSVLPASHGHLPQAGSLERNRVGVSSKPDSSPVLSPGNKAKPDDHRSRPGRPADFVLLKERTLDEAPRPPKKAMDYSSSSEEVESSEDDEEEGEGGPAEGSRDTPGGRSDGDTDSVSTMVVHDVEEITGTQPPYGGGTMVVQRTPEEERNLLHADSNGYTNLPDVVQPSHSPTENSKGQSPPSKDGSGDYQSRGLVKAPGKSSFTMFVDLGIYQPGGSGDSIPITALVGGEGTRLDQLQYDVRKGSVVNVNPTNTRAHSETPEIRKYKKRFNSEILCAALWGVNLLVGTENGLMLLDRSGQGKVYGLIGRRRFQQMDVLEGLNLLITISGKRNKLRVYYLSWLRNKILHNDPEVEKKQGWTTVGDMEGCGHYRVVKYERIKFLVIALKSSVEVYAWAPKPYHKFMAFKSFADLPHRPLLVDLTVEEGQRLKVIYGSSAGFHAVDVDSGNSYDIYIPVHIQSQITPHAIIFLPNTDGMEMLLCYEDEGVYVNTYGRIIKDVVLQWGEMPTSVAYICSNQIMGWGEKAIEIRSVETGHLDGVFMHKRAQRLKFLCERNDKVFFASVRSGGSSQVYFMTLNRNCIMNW
# [5] = tested on: P. berghei; design: method as in earlier work; details: 4 × 30 mg/kg; cited from earlier work
# Chain of PvPI4Kβ (A5KB26 entry or part of it): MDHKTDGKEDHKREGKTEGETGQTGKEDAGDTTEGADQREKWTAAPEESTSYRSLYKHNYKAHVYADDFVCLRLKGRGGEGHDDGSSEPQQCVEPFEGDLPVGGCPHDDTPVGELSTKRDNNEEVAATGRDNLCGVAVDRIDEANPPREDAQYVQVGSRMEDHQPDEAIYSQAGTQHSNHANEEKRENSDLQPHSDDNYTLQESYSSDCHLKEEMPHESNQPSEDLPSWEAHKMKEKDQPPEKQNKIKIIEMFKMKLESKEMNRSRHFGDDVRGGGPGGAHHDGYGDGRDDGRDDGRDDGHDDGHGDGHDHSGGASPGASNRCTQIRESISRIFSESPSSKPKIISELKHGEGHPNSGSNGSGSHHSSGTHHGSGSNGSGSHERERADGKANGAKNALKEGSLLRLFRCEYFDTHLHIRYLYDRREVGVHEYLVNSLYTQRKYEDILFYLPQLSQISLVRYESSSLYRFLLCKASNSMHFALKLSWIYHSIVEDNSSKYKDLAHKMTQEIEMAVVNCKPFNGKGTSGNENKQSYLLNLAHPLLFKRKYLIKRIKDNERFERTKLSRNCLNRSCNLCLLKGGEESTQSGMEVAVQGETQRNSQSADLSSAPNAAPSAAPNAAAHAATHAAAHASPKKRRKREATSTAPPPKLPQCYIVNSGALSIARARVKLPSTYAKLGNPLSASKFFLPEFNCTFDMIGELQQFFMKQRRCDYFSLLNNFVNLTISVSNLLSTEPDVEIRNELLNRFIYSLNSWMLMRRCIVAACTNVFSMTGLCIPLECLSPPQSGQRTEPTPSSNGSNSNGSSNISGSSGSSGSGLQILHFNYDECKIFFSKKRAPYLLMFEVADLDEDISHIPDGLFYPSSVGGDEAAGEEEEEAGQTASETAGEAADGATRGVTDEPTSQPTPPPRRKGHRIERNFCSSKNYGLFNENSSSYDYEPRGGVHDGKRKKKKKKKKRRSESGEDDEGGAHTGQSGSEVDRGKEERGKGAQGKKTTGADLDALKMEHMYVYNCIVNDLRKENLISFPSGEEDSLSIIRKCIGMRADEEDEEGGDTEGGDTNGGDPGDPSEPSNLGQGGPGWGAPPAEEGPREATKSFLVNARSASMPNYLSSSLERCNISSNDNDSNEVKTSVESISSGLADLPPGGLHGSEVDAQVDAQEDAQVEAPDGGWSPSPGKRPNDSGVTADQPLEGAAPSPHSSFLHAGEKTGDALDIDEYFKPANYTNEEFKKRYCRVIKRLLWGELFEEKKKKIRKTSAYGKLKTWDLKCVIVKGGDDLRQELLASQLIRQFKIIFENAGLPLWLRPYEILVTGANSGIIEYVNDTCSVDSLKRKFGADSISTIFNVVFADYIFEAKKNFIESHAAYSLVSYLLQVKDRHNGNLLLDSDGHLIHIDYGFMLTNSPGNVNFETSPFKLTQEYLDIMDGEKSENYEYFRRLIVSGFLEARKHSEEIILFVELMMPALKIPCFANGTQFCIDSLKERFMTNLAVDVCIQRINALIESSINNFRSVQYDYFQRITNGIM
SMILES,IC50 [1] [nM],reduction in parasitaemia [5] [%],other results
CC(C)n1nc(-c2ccc3oc(N)nc3c2)c2c(N)ncnc21 [sapanisertib],< 5,,
Nc1ncc(-c2ccc(C(=O)N3CCNCC3)cc2)nc1-c1ccc(C(F)(F)F)cc1 [UCT943],< 5,,logPRR [2]: 2.5
CN[C@@H]1C[C@H]2O[C@@](C)([C@@H]1OC)n1c3ccccc3c3c4c(c5c6ccccc6n2c5c31)C(=O)NC4 [staurosporine],,,inhibition HsMAP4K4 [3]: nanomolar inhibition; inhibition HsMINK1 [4]: nanomolar inhibition
CCN(CC)CCCC(C)Nc1ccnc2cc(Cl)ccc12 (stereo not shown) [chloroquine],,99.9,
C[C@H]1[C@H](OC(=O)CCC(=O)O)O[C@@H]2O[C@@]3(C)CC[C@H]4[C@H](C)CC[C@@H]1[C@@]24OO3 [artesunate],,99,
